The text below walks through data of paper PMC5218480 (PLoS ONE, 2017).

This test relates to MV-4-11 cells. Kind of test: Gene expression microarray analysis (Affymetrix PrimeView) and GSEA. More on the design: RFU PODN (11730768_x_at) / Fold change /veh PODN (11730768_x_at) / RFU LINC00158 (11744669_a_at) / Fold change /veh LINC00158 (11744669_a_at) / RFU DUSP10 (11751237_a_at) / Fold change /veh DUSP10 (11751237_a_at) / RFU ID3 (11757404_x_at) / Fold change /veh ID3 (11757404_x_at) / RFU PLEKHG5 (11737974_s_at) / Fold change /veh PLEKHG5 (11737974_s_at) / RFU LRRC4B (11730491_at) / Fold change /veh LRRC4B (11730491_at) / RFU GIMAP4 (11747438_a_at) / Fold change /veh GIMAP4 (11747438_a_at) / RFU KRT8 (11758183_x_at) / Fold change /veh KRT8 (11758183_x_at) / RFU CNN1 (11734310_a_at) / Fold change /veh CNN1 (11734310_a_at) / RFU VPS37D (11726825_at) / Fold change /veh VPS37D (11726825_at) / RFU C10orf10 (11716522_x_at) / Fold change /veh C10orf10 (11716522_x_at) / RFU KIR2DL2 /// KIR2DL4 /// KIR2DL5A /// KIR2DL5B /// KIR2DS1 /// KIR2DS2 /// KIR2DS3 /// KIR2DS4 /// KIR3DL3 /// KIR3DL3 /// KIR3DS1 (11738374_at) / Fold change /veh KIR2DL2 /// KIR2DL4 /// KIR2DL5A /// KIR2DL5B /// KIR2DS1 /// KIR2DS2 /// KIR2DS3 /// KIR2DS4 /// KIR3DL3 /// KIR3DL3 /// KIR3DS1 (11738374_at) / RFU C1QL1 (11718748_at) / Fold change /veh C1QL1 (11718748_at) / RFU TMPRSS4 (11747572_a_at) / Fold change /veh TMPRSS4 (11747572_a_at) / RFU HAMP (11756126_x_at) / Fold change /veh HAMP (11756126_x_at) / RFU RNFT2 (11725882_a_at) / Fold change /veh RNFT2 (11725882_a_at) / RFU NR4A2 (11747474_a_at) / Fold change /veh NR4A2 (11747474_a_at) / RFU ABCC12 (11746883_a_at) / Fold change /veh ABCC12 (11746883_a_at) / RFU TMEM136 (11760407_x_at) / Fold change /veh TMEM136 (11760407_x_at) / RFU CLDN22 /// WWC2 (11732394_at) / Fold change /veh CLDN22 /// WWC2 (11732394_at) / RFU HLA-DPB1 (11760878_x_at) / Fold change /veh HLA-DPB1 (11760878_x_at) / RFU SPINT1 (11716480_a_at) / Fold change /veh SPINT1 (11716480_a_at) / RFU GAP43 (11754022_s_at) / Fold change /veh GAP43 (11754022_s_at) / RFU A4GNT (11735810_at) / Fold change /veh A4GNT (11735810_at) / RFU PRB3 (11715151_x_at) / Fold change /veh PRB3 (11715151_x_at) / RFU TUBB4B (11761932_at) / Fold change /veh TUBB4B (11761932_at) / RFU CAPN14 (11732068_a_at) / Fold change /veh CAPN14 (11732068_a_at) / RFU TMCC2 (11721928_a_at) / Fold change /veh TMCC2 (11721928_a_at) / RFU IRGQ (11745062_a_at) / Fold change /veh IRGQ (11745062_a_at) / RFU FAM174B (11720279_a_at) / Fold change /veh FAM174B (11720279_a_at) / RFU TMPRSS4 (11748680_a_at) / Fold change /veh TMPRSS4 (11748680_a_at) / RFU FAM212B (11763350_a_at) / Fold change /veh FAM212B (11763350_a_at) / RFU PLEKHG5 (11743358_a_at) / Fold change /veh PLEKHG5 (11743358_a_at) / RFU ZSCAN30 (11745921_a_at) / Fold change /veh ZSCAN30 (11745921_a_at) / RFU CMKLR1 (11741424_a_at) / Fold change /veh CMKLR1 (11741424_a_at) / RFU LOC101060620 /// MAPK8IP1 (11723275_at) / Fold change /veh LOC101060620 /// MAPK8IP1 (11723275_at) / RFU SPTSSB (11747773_x_at) / Fold change /veh SPTSSB (11747773_x_at) / RFU PRSS12 (11739890_at) / Fold change /veh PRSS12 (11739890_at) / RFU BIN1 (11741810_x_at) / Fold change /veh BIN1 (11741810_x_at) / RFU WNT11 (11732464_a_at) / Fold change /veh WNT11 (11732464_a_at) / RFU C10orf10 (11716521_a_at) / Fold change /veh C10orf10 (11716521_a_at) / RFU C5orf56 (11738089_at) / Fold change /veh C5orf56 (11738089_at) / RFU CYB561 (11721691_x_at) / Fold change /veh CYB561 (11721691_x_at) / RFU ANKRD19P (11752326_a_at) / Fold change /veh ANKRD19P (11752326_a_at) / RFU OR2T12 /// OR2T33 /// OR2T8 (11738714_s_at) / Fold change /veh OR2T12 /// OR2T33 /// OR2T8 (11738714_s_at) / RFU VCAN (11748164_a_at) / Fold change /veh VCAN (11748164_a_at) / RFU JSRP1 (11732532_at) / Fold change /veh JSRP1 (11732532_at) / RFU KRTAP10-11 (11738290_x_at) / Fold change /veh KRTAP10-11 (11738290_x_at) / RFU MYO3A (11730013_a_at) / Fold change /veh MYO3A (11730013_a_at) / RFU EBF3 (11725865_a_at) / Fold change /veh EBF3 (11725865_a_at) / RFU CAMK2N1 (11719241_x_at) / Fold change /veh CAMK2N1 (11719241_x_at) / RFU C5orf56 (11738088_a_at) / Fold change /veh C5orf56 (11738088_a_at) / RFU OLFML3 (11715873_a_at) / Fold change /veh OLFML3 (11715873_a_at) / RFU LOC100653217 /// NTM (11731650_a_at) / Fold change /veh LOC100653217 /// NTM (11731650_a_at) / RFU MAPK11 (11762145_a_at) / Fold change /veh MAPK11 (11762145_a_at) / RFU FIZ1 (11724087_x_at) / Fold change /veh FIZ1 (11724087_x_at) / RFU OASL (11726364_x_at) / Fold change /veh OASL (11726364_x_at) / RFU SOX15 (11748057_x_at) / Fold change /veh SOX15 (11748057_x_at) / RFU CD79A (11719716_a_at) / Fold change /veh CD79A (11719716_a_at) / RFU HIST1H1D (11736915_at) / Fold change /veh HIST1H1D (11736915_at) / RFU CASKIN2 (11723855_a_at) / Fold change /veh CASKIN2 (11723855_a_at) / RFU LOC730098 (11760151_x_at) / Fold change /veh LOC730098 (11760151_x_at) / RFU OR4N2 (11742367_at) / Fold change /veh OR4N2 (11742367_at) / RFU PRRT2 (11749266_a_at) / Fold change /veh PRRT2 (11749266_a_at) / RFU SNX32 (11753110_a_at) / Fold change /veh SNX32 (11753110_a_at) / RFU CDHR5 (11726645_a_at) / Fold change /veh CDHR5 (11726645_a_at) / RFU RCAN1 (11760418_a_at) / Fold change /veh RCAN1 (11760418_a_at) / RFU FAM167A (11723789_a_at) / Fold change /veh FAM167A (11723789_a_at) / RFU FAM26E (11764081_at) / Fold change /veh FAM26E (11764081_at) / RFU ISYNA1 (11749810_s_at) / Fold change /veh ISYNA1 (11749810_s_at) / RFU ACY1 (11761880_at) / Fold change /veh ACY1 (11761880_at) / RFU 11764098_at / Fold change /veh 11764098_at / RFU SAMD14 (11745864_x_at) / Fold change /veh SAMD14 (11745864_x_at) / RFU NPB (11741838_a_at) / Fold change /veh NPB (11741838_a_at) / RFU TMPRSS6 (11731388_a_at) / Fold change /veh TMPRSS6 (11731388_a_at) / RFU KRTAP10-2 (11738614_at) / Fold change /veh KRTAP10-2 (11738614_at) / RFU ARHGAP8 /// PRR5-ARHGAP8 (11727945_x_at) / Fold change /veh ARHGAP8 /// PRR5-ARHGAP8 (11727945_x_at) / RFU KRTAP5-7 /// NADSYN1 (11734609_at) / Fold change /veh KRTAP5-7 /// NADSYN1 (11734609_at) / RFU RASL12 (11751679_a_at) / Fold change /veh RASL12 (11751679_a_at) / RFU CDKN2B (11736163_a_at) / Fold change /veh CDKN2B (11736163_a_at) / RFU PRF1 (11729649_at) / Fold change /veh PRF1 (11729649_at) / RFU, ZNF638 /// ZNF638-IT1 / Fold change vs veh, ZNF638 /// ZNF638-IT1 / RFU, PANK3 / Fold change vs veh, PANK3 / RFU, SH3YL1 / Fold change vs veh, SH3YL1 / RFU, ZEB2 / Fold change vs veh, ZEB2 / RFU, NRIP1 / Fold change vs veh, NRIP1 / RFU, PTTG1IP / Fold change vs veh, PTTG1IP / RFU, CAPN2 / Fold change vs veh, CAPN2 / RFU, MED14 / Fold change vs veh, MED14 / RFU, SNORA58 / Fold change vs veh, SNORA58 / RFU, C1orf63 / Fold change vs veh, C1orf63 / RFU, LRRFIP1 / Fold change vs veh, LRRFIP1 / RFU, NDUFAF7 / Fold change vs veh, NDUFAF7 / RFU, SLC12A2 / Fold change vs veh, SLC12A2 / RFU, IBTK / Fold change vs veh, IBTK / RFU, ESF1 / Fold change vs veh, ESF1 / Fold change vs veh, TMEM50B / RFU, TAOK1 / Fold change vs veh, TAOK1 / RFU, ACBD3 / Fold change vs veh, ACBD3 / RFU, TMA16 / Fold change vs veh, TMA16 / RFU, RWDD3 / Fold change vs veh, RWDD3 / RFU, BCAT1 / Fold change vs veh, BCAT1 / RFU, EDEM3 / Fold change vs veh, EDEM3 / RFU, TMEM33 / Fold change vs veh, TMEM33 / RFU, WDR75 / Fold change vs veh, WDR75 / RFU, AHCTF1 / Fold change vs veh, AHCTF1 / RFU, TFRC / Fold change vs veh, TFRC / RFU, ZDHHC17 / Fold change vs veh, ZDHHC17 / RFU, NOM1 / Fold change vs veh, NOM1 / RFU, ARL8B / Fold change vs veh, ARL8B / RFU, ZBTB11 / Fold change vs veh, ZBTB11 / RFU, TAMM41 / Fold change vs veh, TAMM41 / RFU, KIAA1704 /// LOC100996395 / Fold change vs veh, KIAA1704 /// LOC100996395 / RFU, ING1 / Fold change vs veh, ING1 / RFU, TRMT61B / Fold change vs veh, TRMT61B / RFU, FUBP3 / Fold change vs veh, FUBP3 / RFU, TP53 / Fold change vs veh, TP53 / RFU, TNKS2 / Fold change vs veh, TNKS2 / RFU, ZFP14 / Fold change vs veh, ZFP14 / RFU, ACTR2 / Fold change vs veh, ACTR2 / RFU, PPP3R1 / Fold change vs veh, PPP3R1 / RFU, PIK3R1 / Fold change vs veh, PIK3R1 / RFU, HNRNPA1 / Fold change vs veh, HNRNPA1 / RFU, RNF170 / Fold change vs veh, RNF170 / RFU, ZNF28 / Fold change vs veh, ZNF28 / RFU, RNGTT / Fold change vs veh, RNGTT / RFU, OGT / Fold change vs veh, OGT / RFU, BRD1 / Fold change vs veh, BRD1 / RFU, MARS / Fold change vs veh, MARS / RFU, ZNF655 / Fold change vs veh, ZNF655 / RFU, FAHD1 / Fold change vs veh, FAHD1 / RFU, BDP1 / Fold change vs veh, BDP1 / RFU, LRRCC1 / Fold change vs veh, LRRCC1 / RFU, ARID1A / Fold change vs veh, ARID1A / RFU, ZNF146 / Fold change vs veh, ZNF146 / RFU, ZNF330 / Fold change vs veh, ZNF330 / RFU, GPN3 / Fold change vs veh, GPN3 / RFU, C9orf123 / Fold change vs veh, C9orf123 / RFU, N4BP2L2 / Fold change vs veh, N4BP2L2 / RFU, ARFIP1 / Fold change vs veh, ARFIP1 / RFU, FAM179B / Fold change vs veh, FAM179B / RFU, BCL10 / Fold change vs veh, BCL10 / RFU, UHRF1BP1L / Fold change vs veh, UHRF1BP1L / RFU, BET1 / Fold change vs veh, BET1 / RFU, CNOT2 / Fold change vs veh, CNOT2 / RFU, ZNF268 / Fold change vs veh, ZNF268 / Fold change vs veh, ZNF507 / RFU, DGCR2 / Fold change vs veh, DGCR2 / RFU, WDSUB1 / Fold change vs veh, WDSUB1 / Fold change vs veh, HSP90B1 /// MIR3652 / RFU, ADSS / Fold change vs veh, ADSS / RFU, GK / Fold change vs veh, GK / RFU, ZNF148 / Fold change vs veh, ZNF148 / RFU, TAF9 / Fold change vs veh, TAF9 / RFU, SLC1A5 / Fold change vs veh, SLC1A5 / RFU, SLMO2 / Fold change vs veh, SLMO2 / RFU, ABCC4 / Fold change vs veh, ABCC4 / RFU, LOC101060439 /// RAP1B / Fold change vs veh, LOC101060439 /// RAP1B / RFU, RFX7 / Fold change vs veh, RFX7 / RFU, GTPBP10 / Fold change vs veh, GTPBP10 / RFU, CNEP1R1 / Fold change vs veh, CNEP1R1 / RFU, BIVM-ERCC5 /// ERCC5 / Fold change vs veh, BIVM-ERCC5 /// ERCC5 / RFU, ILF3 / Fold change vs veh, ILF3 / RFU 11762660_at / Fold change /veh 11762660_at / RFU VCAN (11757783_s_at) / Fold change /veh VCAN (11757783_s_at) / RFU DDX43 (11728927_at) / Fold change /veh DDX43 (11728927_at) / RFU KRT8 (11758188_x_at) / Fold change /veh KRT8 (11758188_x_at) / RFU NKD1 (11759106_at) / Fold change /veh NKD1 (11759106_at) / RFU SRD5A1 (11742802_a_at) / Fold change /veh SRD5A1 (11742802_a_at) / RFU TPSAB1 /// TPSB2 (11721975_s_at) / Fold change /veh TPSAB1 /// TPSB2 (11721975_s_at) / RFU GSTM3 (11746129_a_at) / Fold change /veh GSTM3 (11746129_a_at) / RFU IL23R (11737362_x_at) / Fold change /veh IL23R (11737362_x_at) / RFU TMEM51 (11727254_a_at) / Fold change /veh TMEM51 (11727254_a_at) / RFU PIWIL2 (11732686_x_at) / Fold change /veh PIWIL2 (11732686_x_at) / RFU ORM1 (11744905_x_at) / Fold change /veh ORM1 (11744905_x_at) / RFU CCDC152 (11743942_at) / Fold change /veh CCDC152 (11743942_at) / RFU ECM1 (11717891_a_at) / Fold change /veh ECM1 (11717891_a_at) / RFU IL23R (11748794_a_at) / Fold change /veh IL23R (11748794_a_at) / RFU TNFAIP8L3 (11732012_x_at) / Fold change /veh TNFAIP8L3 (11732012_x_at) / RFU MBOAT4 (11741988_at) / Fold change /veh MBOAT4 (11741988_at) / RFU 11764193_at / Fold change /veh 11764193_at / RFU TMEM53 (11763286_at) / Fold change /veh TMEM53 (11763286_at) / RFU MAGEB2 (11727129_at) / Fold change /veh MAGEB2 (11727129_at) / RFU TMEM200A (11744735_a_at) / Fold change /veh TMEM200A (11744735_a_at) / RFU CCDC152 (11751479_a_at) / Fold change /veh CCDC152 (11751479_a_at) / RFU FAM211A (11726209_a_at) / Fold change /veh FAM211A (11726209_a_at) / RFU RGS16 (11746705_a_at) / Fold change /veh RGS16 (11746705_a_at) / RFU VCAN (11755009_s_at) / Fold change /veh VCAN (11755009_s_at) / RFU RHOB (11743442_s_at) / Fold change /veh RHOB (11743442_s_at) / RFU RGS16 (11720943_a_at) / Fold change /veh RGS16 (11720943_a_at) / RFU RGS16 (11720944_at) / Fold change /veh RGS16 (11720944_at) / RFU, VPS4B / Fold change vs veh, VPS4B / RFU, CREB1 / Fold change vs veh, CREB1 / RFU, DNAJC13 / Fold change vs veh, DNAJC13 / RFU, GNAQ / Fold change vs veh, GNAQ / RFU, CDK5R1 / Fold change vs veh, CDK5R1 / RFU, ZRANB3 / Fold change vs veh, ZRANB3 / RFU, CUL4A / Fold change vs veh, CUL4A / RFU, CCNY / Fold change vs veh, CCNY / RFU, UFL1 / Fold change vs veh, UFL1 / RFU, COG3 / Fold change vs veh, COG3 / RFU, DIAPH2 / Fold change vs veh, DIAPH2 / RFU, SKA2 / Fold change vs veh, SKA2 / RFU, AFF3 / Fold change vs veh, AFF3 / RFU, LMF1 / Fold change vs veh, LMF1 / RFU, IPO11 / Fold change vs veh, IPO11 / RFU, DFFB / Fold change vs veh, DFFB / RFU, FOXP1 / Fold change vs veh, FOXP1 / RFU, CARD8 / Fold change vs veh, CARD8 / RFU, STRN3 / Fold change vs veh, STRN3 / RFU, ADK / Fold change vs veh, ADK / RFU, RASSF2 / Fold change vs veh, RASSF2 / RFU, WIPF1 / Fold change vs veh, WIPF1 / RFU, LARP1B / Fold change vs veh, LARP1B / RFU, RASA1 / Fold change vs veh, RASA1 / RFU, RB1 / Fold change vs veh, RB1 / RFU, PPFIA1 / Fold change vs veh, PPFIA1 / RFU, MAT2A / Fold change vs veh, MAT2A / RFU, CCT5 / Fold change vs veh, CCT5 / RFU, WDR92 / Fold change vs veh, WDR92 / RFU, CUX1 / Fold change vs veh, CUX1 / RFU, TTC7A / Fold change vs veh, TTC7A / RFU, TMEM135 / Fold change vs veh, TMEM135 / RFU, DEPTOR / Fold change vs veh, DEPTOR / RFU, CPM / Fold change vs veh, CPM / RFU, DNAJB6 / Fold change vs veh, DNAJB6 / RFU, CACNA2D3 / Fold change vs veh, CACNA2D3 / RFU, DTX4 / Fold change vs veh, DTX4 / RFU, TFCP2 / Fold change vs veh, TFCP2 / RFU, GMCL1 /// GMCL1P1 / Fold change vs veh, GMCL1 /// GMCL1P1 / RFU, AEBP2 / Fold change vs veh, AEBP2 / RFU, SNHG1 /// SNORD22 /// SNORD25 /// SNORD26 /// SNORD27 /// SNORD28 /// SNORD29 /// SNORD31 / Fold change vs veh, SNHG1 /// SNORD22 /// SNORD25 /// SNORD26 /// SNORD27 /// SNORD28 /// SNORD29 /// SNORD31 / Fold change (Aza/veh), C12orf56 (ProbeSet 11735607_a_at) / Fold change (ACY-1035/veh), C12orf56 (ProbeSet 11735607_a_at) / Fold change (Aza/veh), FGFR1OP (ProbeSet 11751329_s_at) / Fold change (ACY-1035/veh), FGFR1OP (ProbeSet 11751329_s_at) / Fold change (Aza/veh), VPS36 (ProbeSet 11739960_a_at) / Fold change (ACY-1035/veh), VPS36 (ProbeSet 11739960_a_at) / RFU SYPL1 (11715823_x_at) / Fold change /veh SYPL1 (11715823_x_at) / RFU IGFBP7 (11715501_s_at) / Fold change /veh IGFBP7 (11715501_s_at) / RFU REEP3 (11722064_at) / Fold change /veh REEP3 (11722064_at) / RFU IGLL1 (11728026_x_at) / Fold change /veh IGLL1 (11728026_x_at): dose or concentration left out as unconfirmed. Type of test: cell-based, human. Particulars: ProbeSet 11731461_x_at; LIST D.

As to `Nc1ncn([C@@H]2O[C@H](CO)[C@@H](O)[C@H]2O)c(=O)n1` [azacitidine], the “RFU, CPM” value came out at 125.18 RFU.
